Results taken from patent US4952580A, “Pesticidal polyhaloalkene derivatives” (priority 1988, dated 1990).
Read-outs that look alike come from different tables or passages of the source.

What was measured:
root-knot nematode [1] = test: Systemic Activity (basipetal, foliar spray) against root-knot nematode; format: in vivo, Meloidogyne incognita; conditions: 336 h, Table 8, rate 2000 ppm, read-out: Percent Control
Experimental: (§1) Compounds of this invention were tested as follows for nematicidal and anthelmintic activity as dust formulations (initial and residual activity) and as acetone/water formulations (systemic activity). The formulations are described above.
Compounds of the invention were tested for basipetal systemic activity against the root-knot nematode. In this test, tomato plants are grown in 10.2 cm diameter fiber pots containing steam-pasteurized soil mix (50%, soil, 50% sand) until 4-6 true leaves appear. Three of the pots are then placed on a turntable in a spray hood and the plants sprayed with 50 ml of water/acetone solution containing the test compound. The soil surface is covered during the spraying to prevent spraying of the soil. After treatment, the potted plants are placed in a lighted drying chamber. The plants are then grown in a growth chamber at 25° C. for three days and inoculated with a standard nematode culture by incorporating the inoculum into the top cm of soil in the pots. The plants are returned to the growth chamber for about two weeks at which time the pots are allowed to dry until the plants begin to wilt. The roots are shaken free of soil and the degree of galling (swelling) noted as compared to galling of untreated control plants. The results are expressed as Knot Index and Percent Control as defined in the initial root-knot nematode activity tests reported above in Table 2.

[2] = test system: root-knot nematode (Meloidogyne incognita); test: Initial Root-Knot Nematicidal Activity; format: in vivo; conditions: 336 h, read-out: Percent Control; for pest or weed control at 1.25 ppm: Table 2, Application Rate 1.25 ppm
Experimental: as §1
The activity against root-knot nematode (Meloidogyne incognita) was determined by incorporating the compound of the invention in nematode infested soil at rates in the range of 10 ppm to 0.078 ppm of compound. Several tomato or cucumber seedlings were planted in the nematode infested soil. Two weeks after planting the test pots were evaluated to ascertain the degree of galling (swelling) on the roots of the plants, indicating the control provided by the test chemical.
The results expressed as precent control (determined by knot index) are set forth as averages in Table 2 (appended). Knot index is a numerical designation assigned at evaluation, having the following meanings:
Percent control is related to knot index as follows:
When the Knot Index is between 0 and 1 it is further subdivided as follows to indicate how close the percent control is to 75% or 100%: […]

stunt nematode = test: Stunt Nematode Test; format: in vivo
Experimental: as §1
The procedure was substantially the same as in the […] seedling, with subsequent inoculation of the soil with combined larvae and adult stunt nematodes. The samples were evaulated approximately four weeks after infestation. […] "Percent control" means the difference between average population counts between untreated and treated samples, divided by average population count of untreated sample, multiplied by 100.

root-knot nematode [3] = test: Soil Mobility against root-knot nematode; format: in vivo, Meloidogyne incognita; conditions: 336 h
Experimental: as §1
The ability of nematicidal compounds of the invention to move through nematode-infested soil […] infested soil, and subsequently eluting the soil with 15 cm of water (equivalent to 15 cm of rainfall) into a series of two or more pots of untreated, but nematode-infested, soil. Specifically, the pots were 8 cm diameter plastic pots containing a 10 cm^3 layer of sand over a coarse grade filter paper disc. Sufficient soil was placed over the sand to fill the pots, and a second filter paper disc was placed over the soil. Each test compound-treated pot was nested over a series of two or more pots containing untreated, but nematode-infested soil, also containing sand filter paper discs as described for the treated soil pots. Fifteen cm of water was slowly dripped into the top pots and the pots were allowed to drain for 16-18 hours to remove excess water. The top filter of each pot was then removed and the pots were planted with a cucumber or tomato seedling. […] "Knot Index" and "Percent Control" are as defined in the initial root-knot nematode tests above.

root-knot nematode [4] = test: Residual Root-Knot Nematicidal Activity; format: in vivo, Meloidogyne incognita; conditions: Table 3a, 5% dust, 5 ppm, read-out: Percent Control
Experimental: as §1
The ability of nematicidal compounds of the invention to control root-knot nematode infestations in soil over a period of time after treatment was evaluated. Dust formulations of test compound (5%) were incorporated into soil samples at test compound rates of 5 and 10 ppm. Subsequently, the treated soil samples were inoculated with nematode inoculum at weekly intervals, and Knot Index and Percent Control determined on seedlings planted in the soil samples. Specifically, soil treated with test compound was placed in 7.6 cm diameter fiber pots and stored in a greenhouse. At one, two and four weeks post-treatment, the appropriate number of pots was infested with root-knot nematode eggs and larvae. A cucumber or tomato seedling was planted in each pot and evaluated approximately two weeks after the soil infestation to obtain the test results reported in Tables 3 and 3a appended.

lesion nematode = test: Lesion Nematode Test; format: in vivo; conditions: Table 5; rate 2.5 ppm; read-out: Percent Control
Experimental: as §1
The procedure was substantially the same as in the stunt nematode test described above except that pea seedlings were used. The results (Table 5 appended) show good control with many of the compounds at the application rates tested as compared with untreated samples (no control). "Percent Control" is defined as follows: [formula]

Caenorhabditis elegans = test: C. Elegans Nematode Screening Test and Evaluation (in-vitro); conditions: Caenorhabditis elegans
Experimental: This in-vitro test using the free-living nematode Caenorhabditis elegans, is a modification of the assay developed by Simpkin and Coles, J. Chem. Tech. […] One milliliter of a test medium consisting of 5 mg ampicillin, 10,000 units of mycostatin and 10 ml of a dense suspension of Escherichia coli per 100 ml of a buffer solution, was pipetted into each well of a 24-well microtiter plate. The candidate nematicide, suspended at the appropriate concentration in dimethylsulfoxide, was added to the wells in […] volumes. Each rate of application was replicated two to three times. After thorough mixing of the contents of each well, 50 to 100 μl of a nematode suspension in a buffer was added so that each well received 10-15 nematodes. After the nematodes were added, the microtiter plates were incubated at 20° C. for 5-6 days.
The effect of the candidate nematicide on the survival and the reproduction of C. elegans was then evaluated by comparison of the level of population developed in the treated wells with that in untreated wells. Specific effects on population development, such as reduced egg hatch or molting disruption, were noted if they were evident.

[5] = Table 2, Application Rate 0.625 ppm
[6] = Table 2, Application Rate 2.5 ppm
[7] = Table 7a, 5% dust, 5 ppm, MIDDLE container, read-out: Percent Control
[8] = Table 7a, 5% dust, 5 ppm, TOP container, read-out: Percent Control
[9] = read-out: Percent Control, Table 7a, 5% dust, 5 ppm, BOTTOM container
[10] = 672 h; Table 4a; rate 5 ppm; read-out: Percent Control
[11] = Table 2, Application Rate 0.312 ppm
[12] = Table 7a, 5% dust, 5 ppm, BOTTOM container, read-out: Percent Control
[13] = 672 h, Table 4a; rate 5 ppm; read-out: Percent Control
[14] = 168 h, inoculation 1 week post-treatment
[15] = 336 h, inoculation 2 weeks post-treatment
[16] = 672 h, inoculation 4 weeks post-treatment

| Compound | pest or weed control at 0.625 ppm [2, 5] [%] | pest or weed control at 1.25 ppm [2] [%] | pest or weed control at 2.5 ppm [2, 6] [%] | pest or weed control at 5 ppm (root-knot nematode [3]; [7]) [%] | pest or weed control at 5 ppm (root-knot nematode [3]; [8]) [%] | pest or weed control at 0.312 ppm [2, 11] [%] | pest or weed control at 5 ppm (root-knot nematode [3]; [12]) [%] | pest or weed control at 5 ppm (stunt nematode; [13]) [%] | pest or weed control at 5 ppm (root-knot nematode [4]; [14]) [%] | pest or weed control at 5 ppm (root-knot nematode [4]; [15]) [%] | pest or weed control at 5 ppm (root-knot nematode [4]; [16]) [%] | pest or weed control at 2.5 ppm (lesion nematode) [%] | further results |
| --- | --- | --- | --- | --- | --- | --- | --- | --- | --- | --- | --- | --- | --- |
| CC(C)(C)CC(C)(C)Sc1nnc(SCCC(F)=C(F)F)s1 [Compound 12, 2-(1,1,3,3-tetramethylbutylthio)-5-(3,4,4-trifluoro-3-butenylthio)-1,3,4-thiadiazole] | 69 | 79 | 100 | – | – | – | – | – | – | – | – | – | pest or weed control at 2000 ppm (root-knot nematode [1]): 73%; pest or weed control at 2000 ppm (root-knot nematode [1]; foliar): 99%; pest or weed control at 0.313 ppm ([2]; Table 2, Application Rate 0.313 ppm): 8% |
| FC(F)=C(F)CCN=C=S [Compound 6, (3,4,4-trifluoro-3-butenyl) isothiocyanate] | – | – | – | – | – | – | – | – | – | – | – | – | pest or weed control at 5 ppm (stunt nematode; 672 h, Table 4; rate 5 ppm; read-out: Percent Control): 51%; pest or weed control at 2.5 ppm [2]: 38%; pest or weed control at 5 ppm [2]: 78%; pest or weed control at 10 ppm [2]: 100% |
| FC(F)=C(F)CCSc1nnc(-c2ccc(F)cc2)o1 [Compound 50, 2-(4-fluorophenyl)-5-(3,4,4-trifluoro-3-butenylthio)-1,3,4-oxadiazole] | 99 | 99 | 100 | 71 | 98 | 78 | – | – | – | – | – | – | pest or weed control at 5 ppm (root-knot nematode [3]; [9]): 33%; pest or weed control at 5 ppm (stunt nematode; [10]): 53% |
| CCCSc1nnc(SCCC(F)=C(F)F)s1 [Compound 29, 2-propylthio-5-(3,4,4-trifluoro-3-butenylthio)-1,3,4-thiadiazole] | 99 | 99 | 99 | 81 | 98 | – | 50 | 56 | 100 | 98 | 81 | 68 | pest or weed control at 0.312 ppm [2]: 95% |
| N#CCCSc1nnc(SCCC(F)=C(F)F)s1 [Compound 28, 2-(2-cyanoethylthio)-5-(3,4,4-trifluoro-3-butenylthio)-1,3,4-thiadiazole] | 86 | 98 | 100 | 83 | 68 | 81 | 68 | 38 | 100 | 100 | 8 | 45 | – |
| FC(F)=C(F)CCSc1nnc(-c2ccc(Br)cc2)o1 [Compound 49, 2-(4-bromophenyl)-5-(3,4,4-trifluoro-3-butenylthio)-1,3,4-oxadiazole] | 100 | 100 | 100 | 71 | 99 | 98 | 8 | 58 | – | – | – | – | – |
| CC(C)Sc1nnc(SCCC(F)=C(F)F)s1 [Compound 30, 2-(1-methylethylthio)-5-(3,4,4-trifluoro-3-butenylthio)-1,3,4-thiadiazole] | 99 | 99 | 100 | 100 | 99 | 97 | – | 66 | 98 | 97 | 83 | 75 | pest or weed control at 5 ppm (root-knot nematode [3]; [9]): 17% |
| FC(F)=C(F)CCSc1nnc(Cc2ccc(Cl)cc2)o1 [Compound 43, 2-(4-chlorophenylmethyl)-5-(3,4,4-trifluoro-3-butenylthio)-1,3,4-oxadiazole] | – | 56 | 97 | 97 | 99 | 78 | 81 | 81 | 100 | 100 | 100 | 93 | pest or weed control at 5 ppm (stunt nematode; [10]): 62%; inhibition at 5 ppm (Caenorhabditis elegans; Table 9 screen, 5 ppm, read-out: Percent Inhibition of Reproduction): 100%; mortality at 5 ppm (Caenorhabditis elegans; Table 9 screen, 5 ppm, read-out: Percent Mortality): 25%; mortality at 5 ppm (Caenorhabditis elegans; Table 10 evaluation, 5 ppm, read-out: Percent Mortality): 83%; inhibition at 1.25 ppm (Caenorhabditis elegans; Table 10 evaluation, 1.25 ppm, read-out: Percent Inhibition of Reproduction): 42%; mortality at 1.25 ppm (Caenorhabditis elegans; Table 10 evaluation, 1.25 ppm, read-out: Percent Mortality): 0%; inhibition at 2.5 ppm (Caenorhabditis elegans; Table 10 evaluation, 2.5 ppm, read-out: Percent Inhibition of Reproduction): 100%; mortality at 2.5 ppm (Caenorhabditis elegans; Table 10 evaluation, 2.5 ppm, read-out: Percent Mortality): 67%; pest or weed control at 0.078 ppm ([2]; Table 2, Application Rate 0.078 ppm): 13%; pest or weed control at 0.156 ppm ([2]; Table 2, Application Rate 0.156 ppm): 38%; pest or weed control at 0.5 ppm ([2]; Table 2, Application Rate .5 ppm): 99% |
| FC(F)=C(F)CCSc1nnc(CCc2ccccc2)o1 [Compound 47, 2-(2-phenylethyl)-5-(3,4,4-trifluoro-3-butenylthio)-1,3,4-oxadiazole] | – | 96 | 100 | 96 | 98 | – | 58 | 35 | 96 | 25 | 0 | 69 | pest or weed control at 0.312 ppm [2]: 95%; pest or weed control at 0.625 ppm [2]: 95% |
